The text below walks through data of patent US11690832B2, “Treatment of autoimmune diseases with combinations of RXR agonists and thyroid hormones” (Io Therapeutics, Inc., priority 2016, dated 2023).

Data set [1] has as its system oligodendrocyte precursor cells (OPCs). Put plainly: Oligodendrocyte precursor cell differentiation (PLP-EGFP, Cellomics). The data set is classed as cell-based, mouse. Particulars: compared to negative control (DMSO). From the text: OPCs were generated from a neurosphere culture of E14.5 PLP-EGFP (on C57BL/6J background) mouse brains. […] The EGFP expressing cells were quantified with Cellomics Neuronal Profiling Algorithm.
The EGFP expressing cells in controls and all compounds were quantified with Cellomics Neuronal Profiling Algorithm.

A further data set has as its target RARα (Homo sapiens, UniProt P10276). Particulars: at ≥1 μM. Here is the method: To determine whether a RXR agonist can mediate its effects via RXRα receptor homodimers, RXRβ receptor homodimers, RXRγ receptor homodimers, or any combination thereof, or the corresponding RAR/RXR heterodimers, receptor-mediated transactivation assays were performed. For transactivation assays assessing RXR homodimer signaling, CV-1 cells were transfected with 1) an expression construct including a full length RXRα, RXRβ, or RXRγ; and 2) a rCRBPII/RXRE-tk-Luc reporter construct that included RXR homodimer-specific RXRE/DR1 responsive element linked to a luciferase gene. For transactivation assays assessing RAR/RXR heterodimer signaling, CV-1 cells were transfected with 1) an expression construct comprising a fusion protein including an estrogen receptor (ER) DNA binding domain linked to the ligand binding domain of RARα, RARβ, or RARγ and 2) a ERE-tk-Luc reporter construct that included an estrogen receptor responsive element linked to a luciferase gene. […] Data are mean values ±SE from five independent experiments.

The next data set deals with EAE in C57BL/6 (B6) mice. Put plainly: CNS infiltrating cells in EAE mice (FACS, day 20). Format: in vivo, mouse. Particulars: day 20 after immunization, vs vehicle control. The method, then:
To determine whether a RXR agonist can reduce central nervous system (CNS) infiltrating cells, C57BL/6 (B6) mice were treated as described in Example 6. On day 20 after immunization, mice were sacrificed and perfused with phosphate buffered saline (PBS). Brain and spinal cord tissue was isolated, digested with DNase and Liberase DL (Roche Diagnostics, Indianapolis, Ind.) for 30 minutes, and homogenized through 70 micron nylon mesh filters. Resulting cells were placed over a Percoll gradient to remove myelin. The remaining cells (microglia and CNS infiltrating cells) were counted, stained for molecules of interest, and run on a flow cytometer. Based on the frequencies obtained by FACS of these cell populations, total cell numbers of CNS infiltrating leukocytes expressing CD45, including CD4^+ T cells and CD11c^+ CD11b^+ myeloid dendritic cells (DC), were calculated.

The next data set concerns EAE in B6 mice. Put plainly: EAE dose titration experiment with spleen and CNS flow cytometry. Format: in vivo, mouse. Particulars: 200 μg/day vs vehicle control. Here is the method: A dose titration experiment was also conducted in EAE mice. EAE was induced in 28 B6 mice with MOG/CFA and PT as above. Mice were scored on day 7 as indicated above and divided into groups by score so means are as equal as possible.
At the completion of the experiment, the vehicle control and 200 μg/day groups were euthanized and spleen and CNS samples obtained.
Additionally, CD4+ CD25hi cells (generally consisting of TReg) were reduced, although the frequency was not altered (FIGS. 9A and 9B).
Restimulation with PMA/lonomycin was used to help detect the cytokine production.
In general terms: In flow cytometry, cells or beads pass a laser one at a time.

The target of another data set is T1, RXRγ (Homo sapiens, UniProt P48443).
T1 construct: an expression construct including a full length RXRα, RXRβ, or RXRγ; expressed in transfected cells; host or cells: CV-1
T1 sequence (P48443 1-463): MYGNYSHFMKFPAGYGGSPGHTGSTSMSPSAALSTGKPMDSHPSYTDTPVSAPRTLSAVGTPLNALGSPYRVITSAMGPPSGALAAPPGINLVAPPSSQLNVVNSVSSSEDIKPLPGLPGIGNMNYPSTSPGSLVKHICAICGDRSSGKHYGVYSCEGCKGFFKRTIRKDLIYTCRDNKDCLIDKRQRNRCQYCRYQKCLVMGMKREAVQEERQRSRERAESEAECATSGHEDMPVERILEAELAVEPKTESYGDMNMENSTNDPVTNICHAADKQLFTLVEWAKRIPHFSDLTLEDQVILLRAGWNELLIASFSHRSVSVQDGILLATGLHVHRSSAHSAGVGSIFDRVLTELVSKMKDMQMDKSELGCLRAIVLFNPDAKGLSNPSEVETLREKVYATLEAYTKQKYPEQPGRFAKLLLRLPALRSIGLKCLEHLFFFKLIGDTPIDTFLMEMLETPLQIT
Nature of the data set: RXR homodimer transactivation assay (rCRBPII/RXRE-tk-Luc reporter) in CV-1 cells. Format: cell-based.

The subject of another data set is LXRβ/RXR. Nature of the data set: Permissive heterodimer transactivation assay, 3x(PLTP/LXRE)-tk-Luc in CV-1 cells. Format: cell-based. Particulars: 20 hr; relative to T0901317. From the text:
(§1) For PPARγ: CV-1 cells were transfected with 3×(rAOX/DR1)-tk-Luc reporter gene and an expression vector for PPARγ. For FXR:CV-1 cells were transfected with 3×(IBABP/IRI)-tk-Luc reporter gene and vectors for FXR and RXRα. For LXR:CV-1 cells were transfected with 3×(PLTP/LXRE)-tk-Luc reporter gene with vectors for LXRα or LXRβ. For Nurr1: COS7 cells were transfected with 3×NBRE-tk-luc reporter gene and full length Nurr-1 with or without full-length RXRα plasmid. […] Luciferase data were normalized to co-transfected β-gal activity. Luciferase activity was expressed as percent of maximal activity obtained using specific agonists. Rosiglitazone (PPARγ), GW4064 (FXR), T0901317 (LXR).

Another data set relates to LXRα/RXR. Described as above. The data set is classed as cell-based. Particulars: 20 hr; relative to T0901317.
Source text: as §1

The subject of data set [2] is cuprizone plus rapamycin (CR) demyelination in C57BL/6J mice.
Source text: Animals (8 week-old male C57BL/6J mice) were subjected to cuprizone diet plus rapamycin injections (CR) for 6 weeks to induce demyelination. […] All animals were sacrificed after 6 weeks of CR to evaluate axonal integrity and microglial/macrophage activity in the white matter (corpus callosum, CC).
A total of 50 animals were included in the study, where 43 animals received CR demyelination for 6 weeks. During demyelination, a subset (n=7) of animals were kept on normal diet to serve as naïve age-matched controls.
Another data set has as its target T2, FXR/RXR (Homo sapiens, UniProt P19793).
T2 construct: expressed in transfected cells; host or cells: CV-1
Nature of the data set: Permissive heterodimer transactivation assay, 3x(IBABP/IRI)-tk-Luc in CV-1 cells. Particulars: 20 hr; relative to GW4064. The data set is classed as cell-based.
Source text: as §1

In data set [3] the test system is cuprizone/rapamycin demyelination in C57BL/6J mice. Nature of the data set: 12-week cuprizone/rapamycin demyelination model, 6 weeks of treatment (remyelination). The data set is classed as in vivo, mouse. Particulars: 10 mg/kg PO daily for 6 weeks after 12 weeks CR. The source says: All animals were sacrificed after 12 weeks of CR or after further 6 weeks of treatment to evaluate myelin in white matter (corpus callosum) and gray matter (hippocampus and cortex). In addition, the size of myelinated axons was quantified and the large myelinated axons were further assessed by 3D-electron microscopy (3D-EM). A total of 40 animals were included in the study, where all 40 animals received CR demyelination for 12 weeks. After demyelination, a subset (n=10) of animals are sacrificed to serve as controls to assess baseline demyelination. […] Floating brain sections are immunostained with myelin prolipid protein (PLP) to visualize and quantify myelin in gray matter, hippocampus (FIG. 16A) and cortex (FIG. 16B).

The subject of data set [4] is ethidium bromide demyelination of caudal cerebellar peduncles in one year old rats. Put plainly: Focal toxin (ethidium bromide) induced rat model of demyelination. Format: in vivo. Particulars: IRX4204 10 mg/kg/day oral.
Experimental: The experiment uses rats of relatively advanced age (1 year) since such rats undergo remyelination in a less efficient manner, thereby providing data that are more relevant to the clinical treatment of human patients with multiple sclerosis or other demyelination disorders.
Focal demyelination is induced in one year old rats (approximately 300 g in weight) by injecting stereotactically 5 μl of ethidium bromide solution (0.01% vol/vol in saline) in a bilateral manner into the caudal cerebellar peduncles (CCP). […] The rats are killed on day 24 post-ethidium bromide treatment for analysis of remyelination by quantitative polymerase chain reaction (qPCR) and microscopy.
Data set [5] concerns Naive CD4+ CD25− FoxP3− cells. Put plainly: T cell differentiation under Th17 cell differentiation conditions (Foxp3, IL-17A). The data set is classed as cell-based, mouse. Particulars: 0, 1, 10, 100 nM, with increasing concentration. Here is the method: To determine whether a RXR agonist can regulate T cell differentiation, the ability of an RXR agonist to promote Treg cell differentiation and inhibit Th17 cell differentiation under Th17 cell differentiation conditions was assessed by monitoring Foxp3 and IL-17A expression. Naive CD4^+ CD25^− FoxP3^− cells were purified from a Foxp3-GFP mouse using flow cytometry by sorting and isolating based upon a GFP^− phenotype.

Data set [6] relates to Naive CD4+ CD25− FoxP3− cells. Put plainly: Treg cell differentiation with RXR agonist in the presence of pan-RAR antagonist. Format: cell-based, mouse. Particulars: 1 nM or 10 nM 194310 with IRX4204 at 1.0 nM; Treg conditions. The method, then:
Naive CD4^+ CD25^− FoxP3^− cells were purified from a Foxp3-GFP mouse using flow cytometry by sorting and isolating based upon a GFP^− phenotype. These cells were then cultured under Treg cell differentiation conditions by treating the cells with αCD3 and αCD28 polyclonal antibodies in the presence of IL-2 and TGF-β. […] The cultured cells were then assayed for the expression of Foxp3. […] However, this partial inhibition of Fox3p expression may actually be due to the blocking of the effects of endogenous RA in the culture medium.

Entries after “also recorded” stand apart in the source; their conditions may differ.

T2 sequence (Q96RI1 whole entry partner): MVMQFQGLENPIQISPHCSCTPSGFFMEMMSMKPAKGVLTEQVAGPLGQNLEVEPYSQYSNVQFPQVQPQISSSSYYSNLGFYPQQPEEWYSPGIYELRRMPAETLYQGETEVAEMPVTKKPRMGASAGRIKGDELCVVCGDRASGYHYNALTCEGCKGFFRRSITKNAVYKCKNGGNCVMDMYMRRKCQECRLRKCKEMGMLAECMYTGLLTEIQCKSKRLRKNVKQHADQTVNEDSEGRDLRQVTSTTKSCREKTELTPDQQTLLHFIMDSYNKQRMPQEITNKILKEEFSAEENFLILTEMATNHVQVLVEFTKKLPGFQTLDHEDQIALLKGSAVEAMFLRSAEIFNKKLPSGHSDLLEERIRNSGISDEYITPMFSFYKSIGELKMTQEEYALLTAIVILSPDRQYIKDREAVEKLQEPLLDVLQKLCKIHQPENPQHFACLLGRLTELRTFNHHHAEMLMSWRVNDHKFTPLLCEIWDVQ
T2 sequence (P19793 whole entry): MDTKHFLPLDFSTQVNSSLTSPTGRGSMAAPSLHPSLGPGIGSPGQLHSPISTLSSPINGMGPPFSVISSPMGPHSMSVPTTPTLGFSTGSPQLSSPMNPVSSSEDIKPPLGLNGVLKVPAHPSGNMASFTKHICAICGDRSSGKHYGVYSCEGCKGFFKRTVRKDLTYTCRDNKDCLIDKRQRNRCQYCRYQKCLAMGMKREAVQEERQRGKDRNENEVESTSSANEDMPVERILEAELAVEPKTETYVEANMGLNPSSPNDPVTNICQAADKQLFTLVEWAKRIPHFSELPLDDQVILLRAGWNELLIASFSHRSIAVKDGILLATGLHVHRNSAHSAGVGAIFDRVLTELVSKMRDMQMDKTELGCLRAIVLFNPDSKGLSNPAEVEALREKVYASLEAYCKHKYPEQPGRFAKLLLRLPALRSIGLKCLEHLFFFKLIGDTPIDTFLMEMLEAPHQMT
Sequence of RARα (P10276 183-417 limits assumed, species assumed): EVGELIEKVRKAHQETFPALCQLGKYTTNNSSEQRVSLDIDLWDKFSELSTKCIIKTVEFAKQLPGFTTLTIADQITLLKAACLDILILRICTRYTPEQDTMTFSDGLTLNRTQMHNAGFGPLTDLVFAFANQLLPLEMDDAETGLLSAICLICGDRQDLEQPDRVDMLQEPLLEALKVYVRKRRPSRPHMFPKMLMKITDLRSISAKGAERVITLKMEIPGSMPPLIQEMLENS
Experimental for RXRγ: To determine whether a RXR agonist can mediate its effects via RXRα receptor homodimers, RXRβ receptor homodimers, RXRγ receptor homodimers, or any combination thereof, or the corresponding RAR/RXR heterodimers, receptor-mediated transactivation assays were performed. For transactivation assays assessing RXR homodimer signaling, CV-1 cells were transfected with 1) an expression construct including a full length RXRα, RXRβ, or RXRγ; and 2) a rCRBPII/RXRE-tk-Luc reporter construct that included RXR homodimer-specific RXRE/DR1 responsive element linked to a luciferase gene. For transactivation assays assessing RAR/RXR heterodimer signaling, CV-1 cells were transfected with 1) an expression construct comprising a fusion protein including an estrogen receptor (ER) DNA binding domain linked to the ligand binding domain of RARα, RARβ, or RARγ and 2) a ERE-tk-Luc reporter construct that included an estrogen receptor responsive element linked to a luciferase gene. The ER-RAR fusion proteins provided an accurate readout of only the transfected ER-RAR. […] Data are mean values ±SE from five independent experiments.

As to `CC(/C=C/[C@@H]1C[C@]1(C)c1ccc2c(c1)C(C)(C)CCC2(C)C)=C\C(=O)O` [IRX4204, 3,7-dimethyl-6(S),7(S)-methano,7-[1,1,4,4-tetramethyl-1,2,3,4-tetrahydronaphth-7-yl]2(E),4(E) heptadienoic acid], in [1], the “OPC differentiation into oligodendrocytes (EGFP positive cells)” value is “significant increase; also recorded: dose dependent increase”. Besides, the RARα activity detected result on RARα is recorded as “minimal activity”. In the data set with EAE in C57BL/6 (B6) mice, the “infiltration of CD4+ cells into CNS” value was “significant reduction” and the “infiltration of CD11c+ CD11b+ cells (myeloid DC) into CNS” value was “significant reduction”. Further, in the data set on EAE in B6 mice, the “CD4+ CD25hi cells frequency, spleen” value is “not altered”; the “co-expression of IFNγ and IL-17A by CD4 T cells in CNS” value was “not significantly different between groups”. Also, at RXRγ, the “Efficacy (% of 1 μM IRX4204) RXRγ” value is 0.09 ± 0.01 100 % of 1 μM IRX4204. The “activation of LXRβ/RXR heterodimer” value in the data set with LXRβ/RXR is listed as “not to transactivate; also recorded: does not activate”. In addition, in the data set with LXRα/RXR, the “activation of LXRα/RXR heterodimer” value is listed as “not to transactivate; also recorded: does not activate”. For the same compound, the “health concerns during the treatment phase” value in data set [2] (6 weeks) is reported as “no observed health concerns”. In data set [2] (compared to Vehicle, 6 weeks concurrent with CR), the “number of SMI32 positive axonal ovoids in corpus callosum” value is reported as “not statistically different from the Vehicle”. The “Iba1 staining (microglial/macrophage activation) in corpus callosum” value in data set [2] (compared to vehicle) is “no difference”. At FXR/RXR, the “activation of FXR/RXR heterodimer” value is “not to transactivate; also recorded: does not activate”. The “size of myelinated axons in the corpus callosum” value in data set [3] was “significant increase”. Besides, the “densities of Olig2+ oligodendrocyte lineage cells and CC1+ differentiated oligodendrocytes in lesions” value in data set [4] (day 7 to 21, ± 20 ng/g s.c. thyroxine) is listed as “increased”. The “Mbp and Pdgfra expression (real-time qPCR of lesion samples)” value in data set [4] (± 20 ng/g s.c. thyroxine) is “increase”. For the same compound, in data set [5], the “Foxp3 expression (Treg cells)” value is given as “increased” and the “IL-17A expression (Th17 cells)” value was “decreased”.
Take `CCc1ccc(C2=CC(C)(C)Sc3ccc(C#Cc4ccc(C(=O)O)cc4)cc32)cc1` [Compound 194310]: in data set [6], the “effect on induction of Foxp3 expression by RXR agonist” value is “only partially blocked”.
